Assay [1] has as its system influenza NA. Type of assay: biochemical, influenza virus type A or type B.
Assay [2] concerns the target T1, type B (B/Memphis/3/89) neuraminidase (Influenza B virus (B/Memphis/3/89), UniProt P16199). Type of assay: biochemical. As to conditions: read-out: IC50, MUN substrate, B/Mem/89.
Assay [3] concerns the target T2, N2 (A/Tokyo/67) neuraminidase (Influenza A virus, UniProt P06820). Briefly: biochemical. Details: species or system influenza A virus (A/Tokyo/67).
Assay [4] addresses T1, type B (B/Memphis/3/89) neuraminidase. Type of assay: biochemical. As to conditions: read-out: IC50, Fetuin substrate, B/Mem/89.
For assay [5], the target named is T2, N2 (A/Tokyo/67) neuraminidase. Briefly: biochemical. Details: species or system influenza A virus (A/Tokyo/67). The source holds these as a separate data set.
Assay [6] concerns the target N2 (Influenza A virus (A/Tokyo/3/1967(H2N2)), UniProt P06820). Type of assay: binding.
The target in assay [7] is influenza neuraminidase. Conditions: cited from earlier work.
For assay [8], the target named is influenza A neuramidase. As to conditions: Taylor & von Itzstein, 1994; cited from earlier work.
Assay [9] relates to influenza subtype A. As to conditions: cited from earlier work.
The subject of assay [10] is influenza B. Conditions: cited from earlier work.
The subject of assay [11] is Influenza NA. As to conditions: trisaccharide substrate; cited from earlier work.
[12] abbreviates: whole virus, 50% inhibition of NA activity, MUN, 15 minutes at 37° C, pH 6.0.

pIC50, pKi: −log10 of the molar value. Entries after “also recorded” stand apart in the source; their conditions may differ. Like-named read-outs stand apart in the source and are kept apart here.

T2 sequence (P06820 whole entry, looked up): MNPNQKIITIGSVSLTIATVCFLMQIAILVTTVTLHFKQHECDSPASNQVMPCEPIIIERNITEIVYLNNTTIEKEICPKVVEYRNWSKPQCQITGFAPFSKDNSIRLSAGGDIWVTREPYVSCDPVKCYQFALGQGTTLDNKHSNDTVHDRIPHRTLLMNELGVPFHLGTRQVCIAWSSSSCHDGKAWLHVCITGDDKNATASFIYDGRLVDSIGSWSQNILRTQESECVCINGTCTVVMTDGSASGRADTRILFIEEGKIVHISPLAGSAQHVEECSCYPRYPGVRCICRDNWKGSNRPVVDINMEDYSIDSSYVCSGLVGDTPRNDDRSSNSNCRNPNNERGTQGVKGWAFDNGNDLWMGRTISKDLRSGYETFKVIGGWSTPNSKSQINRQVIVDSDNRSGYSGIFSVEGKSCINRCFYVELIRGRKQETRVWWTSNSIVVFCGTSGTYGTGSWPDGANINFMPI
Sequence of N2 (Influenza A virus (A/Tokyo/3/1967(H2N2)), UniProt P06820) (P06820 whole entry, looked up): as above
T1 sequence (P16199 whole entry, looked up): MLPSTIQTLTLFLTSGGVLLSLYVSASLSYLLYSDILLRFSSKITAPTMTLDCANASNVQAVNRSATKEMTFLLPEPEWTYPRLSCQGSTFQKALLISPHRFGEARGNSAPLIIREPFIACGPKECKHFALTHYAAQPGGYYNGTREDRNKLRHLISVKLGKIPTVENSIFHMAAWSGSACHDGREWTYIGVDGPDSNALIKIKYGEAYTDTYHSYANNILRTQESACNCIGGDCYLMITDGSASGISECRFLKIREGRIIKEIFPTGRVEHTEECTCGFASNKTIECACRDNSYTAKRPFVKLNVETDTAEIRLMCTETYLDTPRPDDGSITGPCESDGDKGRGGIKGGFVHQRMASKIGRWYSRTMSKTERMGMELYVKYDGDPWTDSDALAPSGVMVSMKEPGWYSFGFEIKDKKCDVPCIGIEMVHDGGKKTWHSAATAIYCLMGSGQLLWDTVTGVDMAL

Consider `CC(=O)Nc1ccc(C(=O)O)cc1O` [Compound 101, 4-(acetylamino)-3-hydroxybenzoic acid], for which, in assay [1], the “Change in activity from nitro group alone or phenol OH alone” value is “did not result in significant changes in activity”. Besides, the pIC50 in assay [2] (pH 6) is less than 2.00; in assay [3], 2.00; in assay [4] it was 2.00; in assay [5], less than 2.00.

Consider `CC(=O)Nc1ccc(C(=O)O)cc1OC(C)=O` [Compound 102, 4-(acetylamino)-3-acetoxybenzoic acid], for which the pIC50 was less than 2.00 in assay [2] (pH 6), 2.00 in assay [3], 2.30 in assay [4] and less than 2.00 in assay [5].

On to `CC(=O)Nc1cc([N+](=O)[O-])c(C(=O)O)c([N+](=O)[O-])c1O` [Compound 103, 4-(acetylamino)-3-hydroxy-2,6-dinitrobenzoic acid], for which the pIC50 in assay [2] (pH 6) is 3.00; in assay [4], 2.40.

On to `CC(=O)Nc1c(OC(C)=O)cc(C(=O)O)cc1[N+](=O)[O-]` [Compound 104, 3-acetoxy-4-(acetylamino)-5-nitrobenzoic acid], for which the pIC50 in [2] (pH 6) is 2.70; in assay [4], 2.30.

In the case of `CC(=O)Nc1c(O)cc(C(=O)O)cc1[N+](=O)[O-]` [Compound 105, 4-(acetylamino)-3-hydroxy-5-nitrobenzoic acid], the “Activity compared with sialic acid” value in assay [1] is recorded as “significantly more potent than sialic acid; also recorded: enhanced activity”. Moreover, the results for the pIC50 in assay [2] (pH 6) and in assay [4] were 3.12 and 3.00, respectively. Also, the “binding to N2” value in [6] is reported as “binds strongest to N2”.

For `CC(=O)Nc1c(N)cc(C(=O)O)cc1O.Cl` [Compound 106, 3-amino-4-(acetylamino)-5-hydroxybenzoic acid, hydrochloride], the pIC50 in assay [2] (pH 6) was 2.00; in assay [3], less than 2.00; in assay [4], less than 2.00; in assay [5], less than 2.00. In addition, the “binding to N2” value in assay [6] is “bind fairly well”.

In the case of `CC(=O)Nc1ccc(C(=O)O)cc1[N+](=O)[O-]` [Compound 107], the “Change in activity from nitro group alone or phenol OH alone” value in assay [1] is on record as “did not result in significant changes in activity”. The pIC50 was 2.30 in assay [2] (setting [12]); 2.30 in assay [3]; 2.30 in assay [4] (whole virus, 50% inhibition of NA activity, fetuin); 2.30 in assay [5].

For `CC(=O)Nc1ccc(C(=O)O)cc1N` [Compound 108, 4-(acetylamino)-3-aminobenzoic acid], the results for the pIC50 in assay [2] (pH 6), in [3] and in assay [5] were less than 1.70, less than 2.00 and less than 2.00, respectively. The “binding to N2” value in assay [6] is on record as “binds the weakest to N2”.

In the case of `CC(=O)Nc1ccc(C(=O)O)cc1NC(=O)CO` [Compound 109, 4-(acetylamino)-3-[(hydroxyacetyl)amino]benzoic acid], the pIC50 is 2.52 in [2] (pH 6), less than 2.00 in [3], 2.00 in assay [4] and 2.40 in [5].

For `CC(=O)Nc1ccc(C(=O)O)cc1NC(=O)C(O)CO` (stereo not shown) [Compound 110, 4-(acetylamino)-3-[(2,3-dihydroxypropionyl)amino]benzoic acid], the pIC50 in [2] (pH 6) was 2.10; in assay [4], less than 2.00.

For the molecule `CC(=O)Nc1ccc(C(=O)O)cc1NC(=O)CN` [Compound 111, 4-(acetylamino)-3-[(aminoacetyl)amino]benzoic acid], the pIC50 in assay [4] and in [5] was 2.30 each time.

Regarding `CC(=O)Nc1ccc(C(=O)O)cc1NC(=O)CCCN` [Compound 112, 4-(acetylamino)-3-[(4-aminobutanoyl)amino]benzoic acid], the pIC50 in [2] (pH 6), in [3], in assay [4] and in assay [5] was less than 2.00 in each case.

As a reminder, the pKi is the Ki on a negative log10 scale, so that one unit is a factor of ten. Turning to `CC(=O)N[C@H]1[C@H]([C@H](O)[C@H](O)CO)OC(C(=O)O)=C[C@@H]1O` [DANA, 2-deoxy-2,3-dehydro-N-acetylneuraminic acid, reference compound], the pIC50 in [2] (pH 6), in assay [3], in assay [4] and in assay [5] was 4.82 each time. The pKi in assay [7] (in vitro, influenza neuraminidase) is 5.00; in [8], 5.40.

With `O=C(O)C1=C[C@H](O)[C@@H](NC(=O)C(F)(F)F)[C@H]([C@H](O)[C@H](O)CO)O1` [FANA, 2-deoxy-2,3-dehydro-N-(trifiuoroacetyl)neuraminic acid], the “in vitro activity compared with DANA” value in assay [7] (Palese and Compans, 1976) is reported as “greater in vitro activity”.

As for `NC12CC3CC(CC(C3)C1)C2` [amantadine], the “effect against influenza A” value in [9] is given as “effective only against influenza subtype A”. Besides, the “effect on influenza B” value in [10] is “no effect on influenza B”.

On to `CC(N)C12CC3CC(CC(C3)C1)C2` (stereo not shown) [rimantadine], for which the “effect against influenza A” value in assay [9] is given as “effective only against influenza subtype A”. The “effect on influenza B” value in [10] is listed as “no effect on influenza B”.

On to `CC(=O)N[C@H]1[C@H]([C@H](O)[C@H](O)CO)OC(O)(C(=O)O)C[C@@H]1O` (stereo partly shown) [sialic acid, N-acetylneuraminic acid, reference compound], for which the pIC50 in assay [1] (whole virus screen, MUN and fetuin, read-out: IC50 (modest product inhibitor)) is 2.00; in assay [2] (setting [12]) it was less than 2.00. Also, the pKi in assay [7] was approximately 3.00.

The term Km denotes the concentration of substrate that gives half-maximal velocity. With N-acetyl neuraminyl lactose, the Km in assay [11] was approximately 400 µM.

Values taken from patent US5453533A (priority 1994, dated 1995).
